Results reported in patent publication US12590091B2, “1H-pyrrolo[3,2-C]pyridine and 1H-pyrrolo[2,3-C]pyridine derivatives as TLR9 inhibitors for the treatment of fibrosis” (BRISTOL-MYERS SQUIBB COMPANY, priority 2020, dated 2026).

Columns and labels:
human TLR8 = molecular target: T1, human TLR8 (Homo sapiens, UniProt Q9NR97); assay: TLR8 inhibition reporter assay (HEK-Blue cells, SEAP reporter); format: cell-based; conditions: HEK-Blue cells overexpressing human TLR8, stimulated with R848 15.9 μM, 22 hour incubation
T1 construct: host or cells: HEK-Blue cells
T1 sequence (Q9NR97 27-1041): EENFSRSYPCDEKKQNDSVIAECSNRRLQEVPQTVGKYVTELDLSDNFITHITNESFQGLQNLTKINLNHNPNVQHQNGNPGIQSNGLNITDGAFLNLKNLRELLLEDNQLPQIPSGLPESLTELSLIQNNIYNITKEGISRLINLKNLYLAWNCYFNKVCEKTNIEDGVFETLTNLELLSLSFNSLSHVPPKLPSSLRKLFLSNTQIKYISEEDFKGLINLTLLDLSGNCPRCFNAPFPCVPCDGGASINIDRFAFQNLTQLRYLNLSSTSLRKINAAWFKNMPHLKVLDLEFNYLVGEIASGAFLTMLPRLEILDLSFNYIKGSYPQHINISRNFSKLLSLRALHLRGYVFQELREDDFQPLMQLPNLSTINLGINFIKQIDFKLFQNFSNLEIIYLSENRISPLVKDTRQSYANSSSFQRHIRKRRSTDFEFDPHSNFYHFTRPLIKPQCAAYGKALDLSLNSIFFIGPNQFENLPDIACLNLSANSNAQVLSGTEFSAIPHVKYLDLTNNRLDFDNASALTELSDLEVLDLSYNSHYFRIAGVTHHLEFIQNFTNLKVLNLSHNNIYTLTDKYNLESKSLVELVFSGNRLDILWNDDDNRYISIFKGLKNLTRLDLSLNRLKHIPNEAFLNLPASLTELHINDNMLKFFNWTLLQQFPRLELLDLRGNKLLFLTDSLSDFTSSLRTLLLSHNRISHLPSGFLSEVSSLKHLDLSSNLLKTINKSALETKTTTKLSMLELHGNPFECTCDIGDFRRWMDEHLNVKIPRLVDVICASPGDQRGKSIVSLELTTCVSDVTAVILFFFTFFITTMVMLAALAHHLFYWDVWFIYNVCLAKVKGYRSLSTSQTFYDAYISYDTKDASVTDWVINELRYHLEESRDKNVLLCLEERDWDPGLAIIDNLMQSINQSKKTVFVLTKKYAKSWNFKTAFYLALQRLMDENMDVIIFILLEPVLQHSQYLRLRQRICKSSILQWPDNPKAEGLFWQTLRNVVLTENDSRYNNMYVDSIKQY
Summary of the method: (§1)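 Dose–response from 0.05 nM to 50 μM was run in HEK-Blue human TLR7, TLR8 and TLR9 reporter cells. After 30 min at room temperature with compound, ligand was added (TLR7 gardiquimod 7.5 μM; TLR8 R848 15.9 μM; TLR9 ODN2006 5 nM) and SEAP measured next day, at 22 h.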

human TLR7 = molecular target: T2, human TLR7 (Homo sapiens, UniProt Q9NYK1); assay: TLR7 inhibition reporter assay (HEK-Blue cells, SEAP reporter); format: cell-based; conditions: HEK-Blue cells overexpressing human TLR7, stimulated with gardiquimod 7.5 μM, 22 hour incubation
T2 construct: host or cells: HEK-Blue cells
T2 sequence (Q9NYK1 27-1049): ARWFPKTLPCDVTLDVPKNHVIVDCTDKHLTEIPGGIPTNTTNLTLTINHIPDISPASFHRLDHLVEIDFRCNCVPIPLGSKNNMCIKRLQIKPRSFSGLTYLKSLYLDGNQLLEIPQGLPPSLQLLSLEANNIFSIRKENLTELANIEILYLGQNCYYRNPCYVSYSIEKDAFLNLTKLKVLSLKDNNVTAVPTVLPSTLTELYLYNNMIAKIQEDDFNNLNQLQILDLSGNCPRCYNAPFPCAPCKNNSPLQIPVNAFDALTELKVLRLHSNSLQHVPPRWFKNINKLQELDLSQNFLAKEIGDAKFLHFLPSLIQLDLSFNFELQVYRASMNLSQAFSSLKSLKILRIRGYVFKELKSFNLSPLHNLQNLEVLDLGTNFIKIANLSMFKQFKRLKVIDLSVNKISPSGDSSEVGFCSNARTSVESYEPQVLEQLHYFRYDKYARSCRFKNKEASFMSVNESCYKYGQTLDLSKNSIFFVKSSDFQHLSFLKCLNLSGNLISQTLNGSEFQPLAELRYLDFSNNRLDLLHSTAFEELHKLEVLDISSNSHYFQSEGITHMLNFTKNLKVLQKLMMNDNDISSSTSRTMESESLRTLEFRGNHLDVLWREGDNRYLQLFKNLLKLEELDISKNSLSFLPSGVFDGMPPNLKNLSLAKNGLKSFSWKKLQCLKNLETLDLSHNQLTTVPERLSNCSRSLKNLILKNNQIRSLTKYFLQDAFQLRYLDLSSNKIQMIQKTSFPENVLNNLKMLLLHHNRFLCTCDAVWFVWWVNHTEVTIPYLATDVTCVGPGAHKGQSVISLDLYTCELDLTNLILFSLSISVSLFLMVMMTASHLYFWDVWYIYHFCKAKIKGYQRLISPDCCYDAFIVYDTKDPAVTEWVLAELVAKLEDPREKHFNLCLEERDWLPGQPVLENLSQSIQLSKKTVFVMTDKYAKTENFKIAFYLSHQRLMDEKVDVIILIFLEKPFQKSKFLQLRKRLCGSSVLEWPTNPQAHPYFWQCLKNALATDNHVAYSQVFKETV
Summary of the method: as §1

Row | SMILES | IC50 (human TLR8) | IC50 (human TLR7)
1 | Cc1nc(-c2ccc(N3CCN(CCO)CC3)c(F)c2)cc2c1cc(-c1ccc(S(C)(=O)=O)cc1)n2C [Example 69, 2-(4-(4-(1,4-dimethyl-2-(4-(methylsulfonyl)phenyl)-1H-pyrrolo[3,2-c]pyridin-6-yl)-2-fluorophenyl)piperazin-1-yl)ethan-1-ol] | > 25 µM | 23700 nM
2 | Cc1nc(-c2ccc(N3CCN(C4CCOC4)CC3)c(F)c2)cc2c1cc(-c1ccc(S(C)(=O)=O)cc1)n2C (stereo not shown) [Example 70, 6-(3-fluoro-4-(4-(tetrahydrofuran-3-yl)piperazin-1-yl)phenyl)-1,4-dimethyl-2-(4-(methylsulfonyl)phenyl)-1H-pyrrolo[3,2-c]pyridine] | > 25 µM | > 25000 nM
3 | COCCN1C2CCC1CN(c1ccc(-c3cc4c(cc(-c5ccc(S(C)(=O)=O)cc5)n4C)c(C)n3)cc1)C2 [Example 74, 6-(4-(8-(2-methoxyethyl)-3,8-diazabicyclo[3.2.1]octan-3-yl)phenyl)-1,4-dimethyl-2-(4-(methylsulfonyl)phenyl)-1H-pyrrolo[3,2-c]pyridine] | 19.4 µM | 1600 nM
4 | COCCN1C2CCC1CN(c1ccc(-c3cc4c(cc(-c5ccc(S(C)(=O)=O)cc5)n4C)c(C)n3)cc1F)C2 [Example 75, 6-(3-fluoro-4-(8-(2-methoxyethyl)-3,8-diazabicyclo[3.2.1]octan-3-yl)phenyl)-1,4-dimethyl-2-(4-(methylsulfonyl)phenyl)-1H-pyrrolo[3,2-c]pyridine] | 9.6 µM | 2200 nM
5 | Cc1nc(-c2ccc(N3CC4CCC(C3)N4CCCO)cc2)cc2c1cc(-c1ccc(S(C)(=O)=O)cc1)n2C [Example 76, 3-(3-(4-(1,4-dimethyl-2-(4-(methylsulfonyl)phenyl)-1H-pyrrolo[3,2-c]pyridin-6-yl)phenyl)-3,8-diazabicyclo[3.2.1]octan-8-yl)propan-1-ol] | 18.3 µM | 600 nM
6 | Cc1nc(-c2ccc(N3CC4CCC(C3)N4CCCO)c(F)c2)cc2c1cc(-c1ccc(S(C)(=O)=O)cc1)n2C [Example 77, 3-(3-(4-(1,4-dimethyl-2-(4-(methylsulfonyl)phenyl)-1H-pyrrolo[3,2-c]pyridin-6-yl)-2-fluorophenyl)-3,8-diazabicyclo[3.2.1]octan-8-yl)propan-1-ol] | 19.2 µM | 1900 nM
7 | COCCN1C2CCC1CN(c1cc(F)c(-c3cc4c(cc(-c5ccc(S(C)(=O)=O)cc5)n4C)c(C)n3)cc1F)C2 [Example 78, 6-(2,5-difluoro-4-(8-(2-methoxyethyl)-3,8-diazabicyclo[3.2.1]octan-3-yl)phenyl)-1,4-dimethyl-2-(4-(methylsulfonyl)phenyl)-1H-pyrrolo[3,2-c]pyridine] | 9.4 µM | 2700 nM
8 | Cc1nc(-c2cc(F)c(N3CC4CCC(C3)N4CCCO)cc2F)cc2c1cc(-c1ccc(S(C)(=O)=O)cc1)n2C [Example 79, 3-(3-(4-(1,4-dimethyl-2-(4-(methylsulfonyl)phenyl)-1H-pyrrolo[3,2-c]pyridin-6-yl)-2,5-difluorophenyl)-3,8-diazabicyclo[3.2.1]octan-8-yl) propan-1-ol] | 9.5 µM | 2700 nM
9 | Cc1nc(-c2ccc(N3CCN(CC(C)C)CC3)c(F)c2F)cc2c1cc(-c1ccc(S(C)(=O)=O)cc1)n2C [Example 82, 6-(2,3-difluoro-4-(4-isobutylpiperazin-1-yl)phenyl)-1,4-dimethyl-2-(4-(methylsulfonyl)phenyl)-1H-pyrrolo[3,2-c]pyridine] | > 50 µM | 6400 nM
10 | Cc1nc(-c2ccc(C3(O)CCN(C(C)C)CC3)cc2)cc2c1cc(-c1ccc(S(C)(=O)=O)cc1)n2C [Example 88, 4-(4-(1,4-dimethyl-2-(4-(methylsulfonyl)phenyl)-1H-pyrrolo[3,2-c]pyridin-6-yl)phenyl)-1-isopropylpiperidin-4-ol] | 10.5 µM | 6500 nM
11 | Cc1nc(-c2ccc(N3CCN4CCCC4C3)c(F)c2F)cc2c1cc(-c1ccc(S(C)(=O)=O)cc1)n2C (stereo not shown) [Example 99, 6-(2,3-difluoro-4-(hexahydropyrrolo[1,2-a]pyrazin-2(1H)-yl)phenyl)-1,4-dimethyl-2-(4-(methylsulfonyl)phenyl)-1H-pyrrolo[3,2-c]pyridine] | 6 µM | 1500 nM
12 | CCN1C2CCC1CC(O)(c1ccc(-c3cc4c(cc(-c5ccc(S(C)(=O)=O)cc5)n4C)c(C)n3)cc1F)C2 [Example 101, (1R,3r,5S)-3-(4-(1,4-dimethyl-2-(4-(methylsulfonyl)phenyl)-1H-pyrrolo[3,2-c]pyridin-6-yl)-2-fluorophenyl)-8-ethyl-8-azabicyclo[3.2.1]octan-3-ol] | 5.1 µM | 5700 nM

Now those with a lower IC50 (human TLR8), led by results:

Row | IC50 (human TLR8) | IC50 (human TLR7) | SMILES
13 | 4 µM | 2200 nM | Cc1nc(-c2ccc(C3(O)CCN(C4CC4)CC3)cc2)cc2c1cc(-c1ccc(S(C)(=O)=O)cc1)n2C [Example 87, 1-cyclopropyl-4-(4-(1,4-dimethyl-2-(4-(methylsulfonyl)phenyl)-1H-pyrrolo[3,2-c]pyridin-6-yl)phenyl)piperidin-4-ol]
14 | 1.3 µM | 7100 nM | Cc1nc(-c2ccc(C3(O)CC4CCC(C3)N4C(C)C)c(F)c2)cc2c1cc(-c1ccc(S(C)(=O)=O)cc1)n2C [Example 100, (1R,3r,5S)-3-(4-(1,4-dimethyl-2-(4-(methylsulfonyl)phenyl)-1H-pyrrolo[3,2-c]pyridin-6-yl)-2-fluorophenyl)-8-isopropyl-8-azabicyclo[3.2.1]octan-3-ol]
15 | 1 µM | 5500 nM | Cc1nc(-c2ccc(C3(O)CC4CCC(C3)N4C)c(F)c2)cc2c1cc(-c1ccc(S(C)(=O)=O)cc1)n2C [Example 102, (1R,3r,5S)-3-(4-(1,4-dimethyl-2-(4-(methylsulfonyl)phenyl)-1H-pyrrolo[3,2-c]pyridin-6-yl)-2-fluorophenyl)-8-methyl-8-azabicyclo[3.2.1]octan-3-ol]
16 | 2.1 µM | 2200 nM | Cc1nc(-c2ccc(C3(O)CCN(C(C)(C)C)CC3)c(F)c2)cc2c1cc(-c1ccc(S(C)(=O)=O)cc1)n2C [Example 104, 1-(tert-butyl)-4-(4-(1,4-dimethyl-2-(4-(methylsulfonyl)phenyl)-1H-pyrrolo[3,2-c]pyridin-6-yl)-2-fluorophenyl)piperidin-4-ol]
17 | 0.2 µM | 1100 nM | Cc1nc(-c2ccc([C@@]3(O)CCN(C(C)C)C(C)(C)C3)c(F)c2)cc2c1cc(-c1ccc(S(C)(=O)=O)cc1)n2C [Example 105, (R)-4-(4-(1,4-dimethyl-2-(4-(methylsulfonyl)phenyl)-1H-pyrrolo[3,2-c]pyridin-6-yl)-2-fluorophenyl)-1-isopropyl-2,2-dimethylpiperidin-4-ol]
